Data: patent US8299048B2, “Hexahydrocyclopentyl[f]indazole sulfonamides and derivatives thereof as selective glucocorticoid receptor modulators” (Merck Sharp & Dohme Corp., priority 2008, dated 2012)

Target: T1, human GR (Homo sapiens, UniProt P04150)
T1 sequence (P04150 1-777): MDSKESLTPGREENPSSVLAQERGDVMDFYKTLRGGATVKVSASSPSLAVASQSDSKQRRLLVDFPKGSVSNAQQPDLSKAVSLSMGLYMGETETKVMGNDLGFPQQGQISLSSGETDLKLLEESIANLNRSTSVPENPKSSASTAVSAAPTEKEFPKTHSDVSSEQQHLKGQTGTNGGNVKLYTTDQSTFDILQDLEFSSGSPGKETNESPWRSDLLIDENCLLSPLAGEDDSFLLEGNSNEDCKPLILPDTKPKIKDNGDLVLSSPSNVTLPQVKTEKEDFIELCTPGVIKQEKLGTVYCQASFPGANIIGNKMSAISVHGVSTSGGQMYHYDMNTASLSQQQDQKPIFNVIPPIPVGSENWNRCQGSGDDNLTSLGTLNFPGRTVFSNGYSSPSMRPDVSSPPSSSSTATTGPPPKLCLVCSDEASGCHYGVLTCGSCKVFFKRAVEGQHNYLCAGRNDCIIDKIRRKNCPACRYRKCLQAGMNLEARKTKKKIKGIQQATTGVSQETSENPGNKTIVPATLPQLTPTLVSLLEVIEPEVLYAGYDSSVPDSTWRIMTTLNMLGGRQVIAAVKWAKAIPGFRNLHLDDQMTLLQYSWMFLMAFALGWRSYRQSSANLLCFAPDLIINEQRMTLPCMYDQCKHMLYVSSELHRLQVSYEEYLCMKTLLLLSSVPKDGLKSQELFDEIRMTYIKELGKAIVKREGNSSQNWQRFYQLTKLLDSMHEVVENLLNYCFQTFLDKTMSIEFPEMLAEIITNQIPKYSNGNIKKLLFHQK
Assay: Trans-Activation Modulation of Glucocorticoid Receptor (GRAMMER), MMTV-LUC reporter, agonist mode
Type: cell-based
Parameters: endogenous in cells
Conditions: for Emax: A549, A549 cells, maximum activity, read-out: Transactivation A549 Cells GRAMMER Emax; for EC50: A549 cells, inflection point, read-out: Transactivation A549 Cells GRAMMER IP
How it was run: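 Readout is luciferase from a modified MMTV LTR promoter after 24 h compound exposure alongside 10 nM dexamethasone (100% activity reference), DMSO ≤1%.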

Structure (SMILES)	Emax [%]	EC50 [µM]
C[C@]12Cc3cnn(-c4ccc(F)cc4)c3C=C1CC[C@@H]2CN(CCO)S(=O)(=O)c1cc(Cl)c(Cl)s1 [Example 58, 4,5-dichloro-N-{[(4αR,5S)-1-(4-fluorophenyl)-4α-methyl-1,4,4α,5,6,7-hexahydrocyclopenta[f]indazol-5-yl]methyl}-N-(2-hydroxyethyl)thiophene-2-sulfonamide]	3.1	1.08
COCCN(C[C@H]1CCC2=Cc3c(cnn3-c3ccc(F)cc3)C[C@@]21C)S(=O)(=O)c1c(C)noc1C [Example 173, N-{[(4αR,5S)-1-(4-fluorophenyl)-4α-methyl-1,4,4α,5,6,7-hexahydrocyclopenta[f]indazol-5-yl]methyl}-N-(2-methoxyethyl)-3,5-dimethylisoxazole-4-sulfonamide]	70.4	0.364
C[C@]12Cc3cnn(-c4ccc(F)cc4)c3C=C1CC[C@@H]2CN(CC#N)S(=O)(=O)c1ccccc1F [Example 43, N-(cyanomethyl)-2-fluoro-N-{[(4αR,5S)-1-(4-fluorophenyl)-4α-methyl-1,4,4α,5,6,7-hexahydrocyclopenta[f]indazol-5-yl]methyl}benzenesulfonamide]	36	0.47
C[C@]12Cc3cnn(-c4ccc(F)cc4)c3C=C1CC[C@@H]2CN(CC#N)S(=O)(=O)Cc1cccc(C(F)(F)F)c1 [Example 30, N-(cyanomethyl)-N-{[(4αR,5S)-1-(4-fluorophenyl}-4α-methyl-1,4,4α,5,6,7-hexahydrocyclopenta[f]indazol-5-yl]methyl}-1-[3-(trifluoromethyl)phenyl]methanesulfonamide]	3.5	1.64
C[C@]12Cc3cnn(-c4ccc(F)cc4)c3C=C1CC[C@@H]2CN(CC1(O)CCCCC1)S(=O)(=O)c1ccccc1F [Example 201, 2-fluoro-N-{[(4αR,5S)-1-(4-fluorophenyl)-4α-methyl-1,4,4α,5,6,7-hexahydrocyclopenta[f]indazol-5-yl]methyl}-N-[(1-hydroxycyclohexyl)methyl]benzenesulfonamide]	47.8	0.0884
C[C@@H](O)CN(C[C@H]1CCC2=Cc3c(cnn3-c3ccc(F)cc3)C[C@@]21C)S(=O)(=O)Cc1ccccc1C(=O)O [Example 182, 2-[({{[(4αR,5S)-1-(4-fluorophenyl)-4α-methyl-1,4,4α,5,6,7-hexahydrocyclopenta[f]indazol-5-yl]methyl}[(2R)-2-hydroxypropyl]amino}sulfonyl)methyl]benzoic acid]	8	4.76
COC(=O)c1ccccc1CS(=O)(=O)N(C[C@H]1CCC2=Cc3c(cnn3-c3ccc(F)cc3)C[C@@]21C)C[C@H](C)O [Example 181, methyl 2-[({{[(4αR,5S)-1-(4-fluorophenyl)-4α-methyl-1,4,4α,5,6,7-hexahydrocyclopenta[f]indazol-5-yl]methyl}[(2S)-2-hydroxypropyl]amino}sulfonyl)methyl]benzoate]	54.6	0.364
COC(=O)c1ccccc1S(=O)(=O)N(CCc1ccccc1F)C[C@H]1CCC2=Cc3c(cnn3-c3ccc(F)cc3)C[C@@]21C [Example 189, methyl 2-[([2-(2-fluorophenyl)ethyl]{[(4αR,5S)-1-(4-fluorophenyl)-4α-methyl-1,4,4α,5,6,7-hexahydrocyclopenta[f]indazol-5-yl]methyl}amino)sulfonyl]benzoate]	65.3	0.152
C[C@]12Cc3cnn(-c4ccc(F)cc4)c3C=C1CC[C@@H]2CN(CCO)S(=O)(=O)c1cccc(Cl)c1Cl [Example 61, 2,3-dichloro-N-{[(4αR,5S)-1-(4-fluorophenyl)-4α-methyl-1,4,4α,5,6,7-hexahydrocyclopenta[f]indazol-5-yl]methyl}-N-(2-hydroxyethyl)benezenesulfonamide]	5.8	0.417
Cc1oncc1S(=O)(=O)N(CC#N)C[C@H]1CCC2=Cc3c(cnn3-c3ccc(F)cc3)C[C@@]21C [Example 23, N-(cyanomethyl)-N-{[(4αR,5S)-1-(4-fluorophenyl)-4α-methyl-1,4,4α,5,6,7-hexahydrocyclopenta[f]indazol-5-yl]methyl}-5-methylisoxazole-4-sulfonamide]	2.7	8.79
Cc1cc(S(=O)(=O)N(CC#N)C[C@H]2CCC3=Cc4c(cnn4-c4ccc(F)cc4)C[C@@]32C)c(C)o1 [Example 33, (4αR,5S)-5-({(cyanomethyl)[(2,5-dimethyl-3-furyl)sulfonyl]amino}methyl)-1-(4-fluorophenyl)-4α-methyl-1,4,4α,5,6,7-hexahydrocyclopenta[f]indazol-2-ium]	15.2	1.05
C[C@]12Cc3cnn(-c4ccc(F)cc4)c3C=C1CC[C@@H]2CN(Cc1ccccc1F)S(=O)(=O)c1cccc(C(N)=O)c1 [Example 192, 3-[((2-fluorobenzyl){[(4αR,5S)-1-(4-fluorophenyl)-4α-methyl-1,4,4α,5,6,7-hexahydrocyclopenta[f]indazol-5-yl]methyl}amino)sulfonyl]benzamide]	4.3	0.17
C[C@]12Cc3cnn(-c4ccc(F)cc4)c3C=C1CC[C@@H]2CN(CC#N)S(=O)(=O)Cc1ccccc1 [Example 48, N-(cyanomethyl)-N-{[(4αR,5S)-1-(4-fluorophenyl)-4α-methyl-1,4,4α,5,6,7-hexahydrocyclopenta[f]indazol-5-yl]methyl}-1-phenylmethanesulfonamide]	8.8	0.995
COC(=O)c1ccccc1S(=O)(=O)N(C[C@H]1CCC2=Cc3c(cnn3-c3ccc(F)cc3)C[C@@]21C)C[C@H](C)O [Example 187, methyl 2-({{[(4αR,5S)-1-(4-fluorophenyl)-4α-methyl-1,4,4α,5,6,7-hexahydrocyclopenta[f]indazol-5-yl]methyl}[(2S)-2-hydroxypropyl]amino}sulfonyl)benzoate]	35.8	0.357
C[C@]12Cc3cnn(-c4ccc(F)cc4)c3C=C1CC[C@@H]2CN(CCO)S(=O)(=O)c1ccccc1F [Example 17, 2-fluoro-N-{[(4αR,5S)-1-(4-fluorophenyl)-4α-methyl-1,4,4α,5,6,7-hexahydrocyclopenta[f]indazol-5-yl]methyl}-N-(2-hydroxyethyl)benzenesulfonamide]	37.3	0.22
C[C@]12Cc3cnn(-c4ccc(F)cc4)c3C=C1CC[C@@H]2CN(CC#N)S(=O)(=O)c1ccc(Cl)c(C(F)(F)F)c1 [Example 27, 4-chloro-N-(cyanomethyl)-N-{[(4αR,5S)-1-(4-fluorophenyl)-4α-methyl-1,4,4α,5,6,7-hexahydrocyclopenta[f]indazol-5-yl]methyl}-3-(trifluoromethyl)benzenesulfonamide]	3	0.994
Cc1noc(C)c1S(=O)(=O)N(CC1CCCO1)C[C@H]1CCC2=Cc3c(cnn3-c3ccc(F)cc3)C[C@@]21C (stereo partly drawn) [Example 170, N-{[(4αR,5S)-1-(4-fluorophenyl)-4α-methyl-1,4,4α,5,6,7-hexahydrocyclopenta[f]indazol-5-yl]methyl}-3,5-dimethyl-N-(tetrahydrofuran-2-ylmethyl)isoxazole-4-sulfonamide]	76	0.432
Cc1ccc(S(=O)(=O)N(CC#N)C[C@H]2CCC3=Cc4c(cnn4-c4ccc(F)cc4)C[C@@]32C)s1 [Example 31, N-(cyanomethyl)-N-{[(4αR,5S)-1-(4-fluorophenyl}-4α-methyl-1,4,4α,5,6,7-hexahydrocyclopenta[f]indazol-5-yl]methyl}-5-methylthiophene-2-sulfonamide]	20.7	0.833
COC(=O)c1sccc1S(=O)(=O)N(CC#N)C[C@H]1CCC2=Cc3c(cnn3-c3ccc(F)cc3)C[C@@]21C [Example 34, methyl 3-[((cyanomethyl){[(4αR,5S)-1-(4-fluorophenyl)-4α-methyl-1,4,4α,5,6,7-hexahydrocyclopenta[f]indazol-5-yl]methyl}amino)sulfonyl]thiophene-2-carboxylate]	37	0.748
Cn1nc(C(F)(F)F)cc1-c1ccc(S(=O)(=O)N(CC#N)C[C@H]2CCC3=Cc4c(cnn4-c4ccc(F)cc4)C[C@@]32C)s1 [Example 35]	4.9	0.443
C[C@]12Cc3cnn(-c4ccc(F)cc4)c3C=C1CC[C@@H]2CN(CCO)S(=O)(=O)Cc1ccccc1C(N)=O [Example 198, 2-({[{[(4αR,5S)-1-(4-fluorophenyl)-4α-methyl-1,4,4α,5,6,7-hexahydrocyclopenta[f]indazol-5-yl]methyl}(2-hydroxyethyl)amino]sulfonyl}methyl)benzamide]	8.2	1.23
C[C@]12Cc3cnn(-c4ccc(F)cc4)c3C=C1CC[C@@H]2CN(CCC#N)S(=O)(=O)c1ccccc1F [Example 16, N-(2-cyanoethyl)-2-fluoro-N-{[(4αR,5S)-1-(4-fluorophenyl)-4α-methyl-1,4,4α,5,6,7-hexahydrocyclopenta[f]indazol-5-yl]methyl}benzenesulfonamide]	53	0.255
